# Legend:
# [1] = Release rate in different dissolution media (artificial gastric fluid, water, artificial intestinal fluid); format: physicochemical; details: degradation reaction
# Description: In order to verify whether acidic, basic solvent media would influence the release rate of the sustained-release pellets of the present invention, 0.1 mol/L HCl (pH1.2) was prepared as artificial gastric fluid, […] phosphate buffer (pH6.8) was prepared as artificial intestinal fluid, and these media and water (500 ml) were used as release media, rotation speed was 100 rpm, 37° C. Samples (5 ml, supplemented with equivalent volume of media at the meantime) were taken at 1, 2, 4, 8, 12, 16, 20, 24 h, filtrated, and the subsequent filtrates were used as test solutions. High performance liquid chromatography (Appendix V D of Part II of Chinese Pharmacopoeia, 2010 Edition) was used, octylsilane-bonded silica gel was used as packing agent, 50% methanol was mobile phase, differential refractive detector was used, flow rate was 1.5 ml per minute. 200 μl of test solution was taken, injected in liquid chromatograph, the peak area of topiramate as main drug was recorded; topiramate was separately taken as control sample and measured by the same method, and accumulative release percentages of drug at different time points were calculated by external standard method.
# [2] = cited from earlier work
# [3] = cited from earlier work; remark: listed apart in the source
# human plasma protein = details: plasma concentration range of 0.5-250 μg/ml; decreases with the increase of plasma concentration; cited from earlier work
smiles,measurement,setting,value
"CC1(C)O[C@@H]2[C@@H](CO[C@@]3(COS(N)(=O)=O)OC(C)(C)O[C@@H]23)O1 [Topiramate, 2,3,4,5-bis-O-(1-methylethylene)-β-D-fructopyranose sulfamate]",Stability of topiramate in pH1.2 artificial gastric fluid,[1],unstable
same,Solubility in organic solvents,"[2]; acetone, chloroform, dimethylsulfoxide and ethanol",freely soluble
same,Solubility in alkaline solution,[2]; alkaline solution having pH of 9-10 such as sodium hydroxide or sodium phosphate solutions,very freely soluble
same,pH value of saturated solution,[2]; saturated solution,6.3
same,Solubility in water,"[2]; water, room temperature",about 9.8 mg/mL
same,Solubility in water (descriptive),"[2]; water, room temperature",very slightly soluble
same,Plasma half-life,"[3]; human, in vivo",19 to 25 h
same,Clearance for oral administration,[3]; oral administration,22 to 36 mL/min
same,Human plasma protein binding ratio,human plasma protein,15-41%

# — patent US20150099003A1, “Topiramate Sustained-Release Pharmaceutical Composition, Method for Preparing Same, and Uses Thereof” (Institute of Pharmacology and Toxicology Academy of …, priority 2012, published 2015)
